One series has as its system cotton cotyledons. Briefly: Cotton cotyledon bioefficacy assay (ethylene production by gas chromatography). The series is classed as in vivo. The settings on record: for Ethylene production in cotton cotyledons, average: Average of trials, 500 ppm ACC, 48 hours after application; for Ethylene production in cotton cotyledons: 500 ppm ACC sprayed on 10-day old cotyledons, removed 48 hours after application, incubated 4 to 7 hours. The procedure:
The ACC anhydrate from Chem-Impex International, Inc., an ACC anhydrate prepared by Inogent Laboratories of India and the ACC trihydrate of the present invention were each dissolved with water to 500 ppm w!w of ACC and applied separately to individual sets of 10-day old cotton cotyledons by a hand sprayer in 4 separate trials. 48 hours after application the cotyledons were removed and incubated in sealed vials for 4 to 7 hours. Following incubation, the cotyledons were measured for ethylene gas production by gas chromatography.

The nature of series [1]: Crystal form stability under high humidity. The series is classed as physicochemical.

With `NC1(C(=O)O)CC1` [Inogent Anhydrate], the “Ethylene production in cotton cotyledons, average” value (from here on “Ethylene production … average”) in the series with cotton cotyledons was determined as 20.07 nL C2H4/g/hr. Moreover, the “Ethylene production in cotton cotyledons” value is 25.00 nL C2H4/g/hr with cotton cotyledons (Trial 1), 20.33 nL C2H4/g/hr in the series on cotton cotyledons (Trial 2), 17.53 nL C2H4/g/hr with cotton cotyledons (Trial 3) and 17.43 nL C2H4/g/hr with cotton cotyledons (Trial 4).

`NC1(C(=O)O)CC1` [Trihydrate, 1-aminocyclopropane-1-carboxylic acid trihydrate]: in series [1], the “Stability of crystal form” value was “most stable crystal form of ACC under high humidity”. Further, the “Ethylene production … average” value in the series on cotton cotyledons (trihydrate) is 22.71 nL C2H4/g/hr. Further, the “Ethylene production in cotton cotyledons” value with cotton cotyledons (Trial 1, trihydrate) is on record as 15.06 nL C2H4/g/hr; in the series with cotton cotyledons (Trial 2, trihydrate) it was 22.04 nL C2H4/g/hr; with cotton cotyledons (Trial 3, trihydrate), 36.30 nL C2H4/g/hr; in the series with cotton cotyledons (Trial 4, trihydrate) it was 17.46 nL C2H4/g/hr.

As to `NC1(C(=O)O)CC1` [Chem-Impex Anhydrate, 1-aminocyclopropane-1-carboxylic acid anhydrate], the “Ethylene production … average” value in the series with cotton cotyledons turned out to be 25.66 nL C2H4/g/hr. The entries for the “Ethylene production in cotton cotyledons” value in the series with cotton cotyledons (Trial 1) and in the series with cotton cotyledons (Trial 2) were 28.14 nL C2H4/g/hr and 23.18 nL C2H4/g/hr, respectively.

The values above are taken from patent publication US20180282260A1, “1-AMINOCYCLOPROPANE-1-CARBOXYLIC ACID POLYMORPHS” (Valent BioSciences LLC, priority 2017, published 2018).
